Measurements reported in patent US6706663B2, “Herbicidal 3-heterocyclic substituted benzisothiazole and benzisoxazole compounds” (Wyeth, priority 2000, dated 2004).

Columns and labels:
[1] = system: ZEAMX (Corn, Field); test: Preemergence herbicidal evaluation; type: in vivo, Zea mays, L.; settings: preemergence, rated 4-5 weeks after treatment
[2] = system: IPOHE (Ipomoea hederacea); test: Postemergence herbicidal evaluation; type: in vivo, (L.) Jacq.
Summary of the method: (§1)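 Seedlings grown for about two weeks were sprayed postemergence and then kept under standard greenhouse care. Injury was rated visually 4–5 weeks after treatment on a 0–9 scale against untreated controls, and ratings from repeat tests were averaged.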

[3] = system: ABUTH (Abutilon theophrasti); test: Preemergence herbicidal evaluation; type: in vivo, Medic.; settings: preemergence, rated 4-5 weeks after treatment
[4] = system: GLXMAW (Soybean, Williams); test: Postemergence herbicidal evaluation; type: in vivo, Glycine max, (L.) Merr. cv Williams
Summary of the method: as §1

[5] = system: SETVI (Setaria viridis); test: Preemergence herbicidal evaluation; type: in vivo, (L.) Beau; settings: preemergence, rated 4-5 weeks after treatment
Summary of the method: (§2)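 Seeds mixed with potting soil were planted atop about one inch of soil, then sprayed with test compound in aqueous acetone. Cups were kept in the greenhouse and rated visually 4–5 weeks after treatment on a 0–9 scale against untreated control.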

[6] = system: ECHCG (Echinochloa crus-galli); test: Preemergence herbicidal evaluation; type: in vivo, (L.) Beau; settings: preemergence, rated 4-5 weeks after treatment
Summary of the method: as §2

[7] = system: AMBEL (Ambrosia artemisifolia); test: Postemergence herbicidal evaluation; type: in vivo, L.
Summary of the method: as §1

[8] = system: CHEAL (Chenopodium album); test: Postemergence herbicidal evaluation; type: in vivo, L.
Summary of the method: as §1

[9] = system: CASOB (Cassia obtusifolia); test: Postemergence herbicidal evaluation; type: in vivo, L.
Summary of the method: as §1

[10] = system: ABUTH (Abutilon theophrasti); test: Postemergence herbicidal evaluation; type: in vivo, Medic.
Summary of the method: as §1

[11] = system: ORYSAT (Rice, Tebonnet); test: Postemergence herbicidal evaluation; type: in vivo, Oryza sativa, (L.) Tebonnet
Summary of the method: as §1

[12] = system: MOOVA (Monochoria vaginalis); test: Flooded paddy, preemergence weed control; type: in vivo, Presl.; settings: rated 3-4 weeks after treatment, 0-9 rating scale
Summary of the method: (§3)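 Silt loam, sowing depth ≤0.5 cm; permanent flood 1.5–3 cm above soil; greenhouse culture after treatment. Readout: 0-9 visual scale (stand, vigor, malformation, size, chlorosis, appearance) vs control.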

[13] = system: IPOHE (Ipomoea hederacea); test: Preemergence herbicidal evaluation; type: in vivo, (L.) Jacq.; settings: preemergence, rated 4-5 weeks after treatment
[14] = system: GLXMAW (Soybean, Williams); test: Preemergence herbicidal evaluation; type: in vivo, Glycine max, (L.) Merr. cv Williams; settings: preemergence, rated 4-5 weeks after treatment
[15] = system: CYPIR (Cyperus iria); test: Flooded paddy, preemergence weed control; type: in vivo; settings: rated 3-4 weeks after treatment, 0-9 rating scale
Summary of the method: as §3

[16] = system: AMBEL (Ambrosia artemisifolia); test: Preemergence herbicidal evaluation; type: in vivo, L.; settings: preemergence, rated 4-5 weeks after treatment
Summary of the method: as §2

[17] = system: CHEAL (Chenopodium album); test: Preemergence herbicidal evaluation; type: in vivo, L.; settings: preemergence, rated 4-5 weeks after treatment
Summary of the method: as §2

[18] = system: CASOB (Cassia obtusifolia); test: Preemergence herbicidal evaluation; type: in vivo, L.; settings: preemergence, rated 4-5 weeks after treatment
Summary of the method: as §2

[19] = system: TRZAWR (Wheat, Winter, cv Riband); test: Preemergence herbicidal evaluation; type: in vivo, Triticum aestivum; settings: preemergence, rated 4-5 weeks after treatment
Summary of the method: as §2

Cn1c(C(F)(F)F)cc(=O)n(-c2ccc3snc(C(SCCO)SCCO)c3c2)c1=O [Compound 33, 1,2-benzisothiazole-3-carboxaldehyde, 5-[3,6-dihydro-3-methyl-2,6-dioxo-4-(trifluoromethyl)-1(2H)-pyrimidinyl]-, 3-[bis(2-hydroxyethyl)dithioacetal]]
5.0: Postemergence herbicidal rating, GLXMAW ([4]; rate 0.0320 kg/ha) | ECHCG preemergence herbicidal rating ([6]; Rate 0.2500 kg/ha) | Postemergence herbicidal rating, ORYSAT ([11]; rate 0.0620 kg/ha) | IPOHE preemergence herbicidal rating ([13]; Rate 0.1250 kg/ha) | IPOHE preemergence herbicidal rating ([13]; Rate 0.2500 kg/ha)
6.0: SETVI preemergence herbicidal rating ([5]; Rate 0.2500 kg/ha)
2.0: ZEAMX preemergence herbicidal rating ([1]; Rate 0.1250 kg/ha) | ZEAMX preemergence herbicidal rating ([1]; Rate 0.2500 kg/ha) | ABUTH preemergence herbicidal rating ([3]; Rate 0.0620 kg/ha) | AMBEL preemergence herbicidal rating ([16]; Rate 0.0620 kg/ha)
5.5: Postemergence herbicidal rating, GLXMAW ([4]; rate 0.0620 kg/ha)
8.0: AMBEL preemergence herbicidal rating ([16]; Rate 0.2500 kg/ha)
9.0: Postemergence herbicidal rating, IPOHE ([2]; rate 0.0620 kg/ha) | ABUTH preemergence herbicidal rating ([3]; Rate 0.1250 kg/ha) | ABUTH preemergence herbicidal rating ([3]; Rate 0.2500 kg/ha) | Postemergence herbicidal rating, AMBEL ([7]; rate 0.0620 kg/ha) | Postemergence herbicidal rating, ABUTH ([10]; rate 0.0320 kg/ha) | Postemergence herbicidal rating, ABUTH ([10]; rate 0.0620 kg/ha) | CHEAL preemergence herbicidal rating ([17]; Rate 0.2500 kg/ha)
1.0: Postemergence herbicidal rating, CASOB ([9]; rate 0.0620 kg/ha) | GLXMAW preemergence herbicidal rating ([14]; Rate 0.1250 kg/ha) | TRZAWR preemergence herbicidal rating ([19]; Rate 0.1250 kg/ha)
7.0: Postemergence herbicidal rating, IPOHE ([2]; rate 0.0320 kg/ha) | Postemergence herbicidal rating, CHEAL ([8]; rate 0.0620 kg/ha) | CHEAL preemergence herbicidal rating ([17]; Rate 0.1250 kg/ha)
4.0: Postemergence herbicidal rating, AMBEL ([7]; rate 0.0320 kg/ha) | Postemergence herbicidal rating, ORYSAT ([11]; rate 0.0320 kg/ha) | herbicidal rating, MOOVA ([12]; rate 0.1250 kg/ha) | AMBEL preemergence herbicidal rating ([16]; Rate 0.1250 kg/ha) | CHEAL preemergence herbicidal rating ([17]; Rate 0.0620 kg/ha) | TRZAWR preemergence herbicidal rating ([19]; Rate 0.2500 kg/ha)
3.0: Postemergence herbicidal rating, CHEAL ([8]; rate 0.0320 kg/ha) | GLXMAW preemergence herbicidal rating ([14]; Rate 0.2500 kg/ha) | herbicidal rating, CYPIR ([15]; rate 0.1250 kg/ha)
0.0: ZEAMX preemergence herbicidal rating ([1]; Rate 0.0620 kg/ha) | SETVI preemergence herbicidal rating ([5]; Rate 0.0620 kg/ha) | SETVI preemergence herbicidal rating ([5]; Rate 0.1250 kg/ha) | ECHCG preemergence herbicidal rating ([6]; Rate 0.0620 kg/ha) | ECHCG preemergence herbicidal rating ([6]; Rate 0.1250 kg/ha) | Postemergence herbicidal rating, CASOB ([9]; rate 0.0320 kg/ha) | herbicidal rating, MOOVA ([12]; rate 0.0320 kg/ha) | IPOHE preemergence herbicidal rating ([13]; Rate 0.0620 kg/ha) | GLXMAW preemergence herbicidal rating ([14]; Rate 0.0620 kg/ha) | herbicidal rating, CYPIR ([15]; rate 0.0320 kg/ha) | CASOB preemergence herbicidal rating ([18]; Rate 0.0620 kg/ha) | CASOB preemergence herbicidal rating ([18]; Rate 0.1250 kg/ha) | CASOB preemergence herbicidal rating ([18]; Rate 0.2500 kg/ha) | TRZAWR preemergence herbicidal rating ([19]; Rate 0.0620 kg/ha)

1-methyl-3-[3-(1,3-oxathiolan-2-yl)-1,2-benzisothiazol-5-yl]-6-(trifluoromethyl)uracil S′,S′-dioxide [Compound 32]
4.0: herbicidal rating, CYPIR ([15]; rate 0.0320 kg/ha)
6.0: ZEAMX preemergence herbicidal rating ([1]; Rate 0.0620 kg/ha) | herbicidal rating, MOOVA ([12]; rate 0.0320 kg/ha)
5.0: Postemergence herbicidal rating, ORYSAT ([11]; rate 0.0320 kg/ha)
6.5: ECHCG preemergence herbicidal rating ([6]; Rate 0.0620 kg/ha) | GLXMAW preemergence herbicidal rating ([14]; Rate 0.0620 kg/ha) | CASOB preemergence herbicidal rating ([18]; Rate 0.0620 kg/ha)
8.0: Postemergence herbicidal rating, GLXMAW ([4]; rate 0.0320 kg/ha) | CASOB preemergence herbicidal rating ([18]; Rate 0.1250 kg/ha) | TRZAWR preemergence herbicidal rating ([19]; Rate 0.1250 kg/ha)
5.5: Postemergence herbicidal rating, ORYSAT ([11]; rate 0.0620 kg/ha)
9.0: ZEAMX preemergence herbicidal rating ([1]; Rate 0.1250 kg/ha) | ZEAMX preemergence herbicidal rating ([1]; Rate 0.2500 kg/ha) | Postemergence herbicidal rating, IPOHE ([2]; rate 0.0320 kg/ha) | Postemergence herbicidal rating, IPOHE ([2]; rate 0.0620 kg/ha) | ABUTH preemergence herbicidal rating ([3]; Rate 0.0620 kg/ha) | ABUTH preemergence herbicidal rating ([3]; Rate 0.1250 kg/ha) | ABUTH preemergence herbicidal rating ([3]; Rate 0.2500 kg/ha) | Postemergence herbicidal rating, GLXMAW ([4]; rate 0.0620 kg/ha) | SETVI preemergence herbicidal rating ([5]; Rate 0.0620 kg/ha) | SETVI preemergence herbicidal rating ([5]; Rate 0.1250 kg/ha) | SETVI preemergence herbicidal rating ([5]; Rate 0.2500 kg/ha) | ECHCG preemergence herbicidal rating ([6]; Rate 0.1250 kg/ha) | ECHCG preemergence herbicidal rating ([6]; Rate 0.2500 kg/ha) | Postemergence herbicidal rating, AMBEL ([7]; rate 0.0320 kg/ha) | Postemergence herbicidal rating, AMBEL ([7]; rate 0.0620 kg/ha) | Postemergence herbicidal rating, CHEAL ([8]; rate 0.0320 kg/ha) | Postemergence herbicidal rating, CHEAL ([8]; rate 0.0620 kg/ha) | Postemergence herbicidal rating, CASOB ([9]; rate 0.0620 kg/ha) | Postemergence herbicidal rating, ABUTH ([10]; rate 0.0320 kg/ha) | Postemergence herbicidal rating, ABUTH ([10]; rate 0.0620 kg/ha) | herbicidal rating, MOOVA ([12]; rate 0.1250 kg/ha) | IPOHE preemergence herbicidal rating ([13]; Rate 0.0620 kg/ha) | IPOHE preemergence herbicidal rating ([13]; Rate 0.1250 kg/ha) | IPOHE preemergence herbicidal rating ([13]; Rate 0.2500 kg/ha) | GLXMAW preemergence herbicidal rating ([14]; Rate 0.1250 kg/ha) | GLXMAW preemergence herbicidal rating ([14]; Rate 0.2500 kg/ha) | AMBEL preemergence herbicidal rating ([16]; Rate 0.0620 kg/ha) | AMBEL preemergence herbicidal rating ([16]; Rate 0.1250 kg/ha) | AMBEL preemergence herbicidal rating ([16]; Rate 0.2500 kg/ha) | CHEAL preemergence herbicidal rating ([17]; Rate 0.0620 kg/ha) | CHEAL preemergence herbicidal rating ([17]; Rate 0.1250 kg/ha) | CHEAL preemergence herbicidal rating ([17]; Rate 0.2500 kg/ha) | CASOB preemergence herbicidal rating ([18]; Rate 0.2500 kg/ha) | TRZAWR preemergence herbicidal rating ([19]; Rate 0.2500 kg/ha)
7.0: Postemergence herbicidal rating, CASOB ([9]; rate 0.0320 kg/ha) | herbicidal rating, CYPIR ([15]; rate 0.1250 kg/ha) | TRZAWR preemergence herbicidal rating ([19]; Rate 0.0620 kg/ha)
